Assay results published in the kinase profiling compilation of Christmann-Franck et al. (2016).

How the values were obtained:
Assay in all cases: KINOMEscan competition binding
Conditions in all cases: compound 10.0 µM
TNK2 (human) = TNK2 (human) (UniProt Q07912)
AAK1 (human) = AAK1 (human) (UniProt Q2M2I8)
PIP5K1A (human) = PIP5K1A (human) (UniProt Q99755)
MAPK7 (human) = MAPK7 (human) (UniProt Q13164)
NEK5 (human) = NEK5 (human) (UniProt Q6P3R8)
STK17A (human) = STK17A (human) (UniProt Q9UEE5)
FRK (human) = FRK (human) (UniProt P42685)
MAP3K4 (human) = MAP3K4 (human) (UniProt Q9Y6R4)
PIK3CA (human) = PIK3CA (human) (UniProt P42336)
CAMK2B (human) = CAMK2B (human) (UniProt Q13554)
BTK (human) = BTK (human) (UniProt Q06187)
FES (human) = FES (human) (UniProt P07332)
ABL2 (human) = ABL2 (human) (UniProt P42684)
MAPK4 (human) = MAPK4 (human) (UniProt P31152)
RIOK3 (human) = RIOK3 (human) (UniProt O14730)
EPHA7 (human) = EPHA7 (human) (UniProt Q15375)
PKMYT1 (human) = PKMYT1 (human) (UniProt Q99640)
PTK2 (human) = PTK2 (human) (UniProt Q05397)
TYRO3 (human) = TYRO3 (human) (UniProt Q06418)
TYRO3 (human), sequence (Q06418 whole entry, looked up): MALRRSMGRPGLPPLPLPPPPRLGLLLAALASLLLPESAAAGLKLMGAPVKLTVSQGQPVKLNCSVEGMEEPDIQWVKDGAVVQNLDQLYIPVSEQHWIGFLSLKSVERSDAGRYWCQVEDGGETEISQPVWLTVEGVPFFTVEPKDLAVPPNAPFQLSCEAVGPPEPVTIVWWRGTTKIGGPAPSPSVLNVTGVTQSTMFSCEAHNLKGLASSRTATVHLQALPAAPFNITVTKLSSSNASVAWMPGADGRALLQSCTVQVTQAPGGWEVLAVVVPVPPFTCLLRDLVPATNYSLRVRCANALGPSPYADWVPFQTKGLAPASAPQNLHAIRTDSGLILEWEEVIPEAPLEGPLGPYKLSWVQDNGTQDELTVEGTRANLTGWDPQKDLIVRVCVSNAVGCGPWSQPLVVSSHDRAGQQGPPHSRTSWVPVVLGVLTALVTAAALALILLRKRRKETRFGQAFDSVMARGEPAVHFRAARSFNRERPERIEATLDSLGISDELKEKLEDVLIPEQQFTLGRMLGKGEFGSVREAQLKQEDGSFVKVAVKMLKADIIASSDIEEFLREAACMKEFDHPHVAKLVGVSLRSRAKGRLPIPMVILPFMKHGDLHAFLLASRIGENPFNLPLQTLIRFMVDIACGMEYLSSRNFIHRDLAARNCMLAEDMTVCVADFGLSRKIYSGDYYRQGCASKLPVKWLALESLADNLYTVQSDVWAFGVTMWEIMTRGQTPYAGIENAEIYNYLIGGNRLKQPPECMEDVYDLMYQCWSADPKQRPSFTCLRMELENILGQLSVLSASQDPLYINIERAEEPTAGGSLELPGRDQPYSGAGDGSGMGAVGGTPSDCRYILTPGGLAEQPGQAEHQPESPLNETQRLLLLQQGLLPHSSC

NEK4 (human) = NEK4 (human) (UniProt P51957)
TNNI3K (human) = TNNI3K (human) (UniProt Q59H18)
[1] = tested on: ABL1 (human), P00519 [Y253F]
MYO3B (human) = MYO3B (human) (UniProt Q8WXR4)
RPS6KB1 (human) = RPS6KB1 (human) (UniProt P23443)
ROS1 (human) = ROS1 (human) (UniProt P08922)
ROS1 (human), sequence (P08922 whole entry, looked up): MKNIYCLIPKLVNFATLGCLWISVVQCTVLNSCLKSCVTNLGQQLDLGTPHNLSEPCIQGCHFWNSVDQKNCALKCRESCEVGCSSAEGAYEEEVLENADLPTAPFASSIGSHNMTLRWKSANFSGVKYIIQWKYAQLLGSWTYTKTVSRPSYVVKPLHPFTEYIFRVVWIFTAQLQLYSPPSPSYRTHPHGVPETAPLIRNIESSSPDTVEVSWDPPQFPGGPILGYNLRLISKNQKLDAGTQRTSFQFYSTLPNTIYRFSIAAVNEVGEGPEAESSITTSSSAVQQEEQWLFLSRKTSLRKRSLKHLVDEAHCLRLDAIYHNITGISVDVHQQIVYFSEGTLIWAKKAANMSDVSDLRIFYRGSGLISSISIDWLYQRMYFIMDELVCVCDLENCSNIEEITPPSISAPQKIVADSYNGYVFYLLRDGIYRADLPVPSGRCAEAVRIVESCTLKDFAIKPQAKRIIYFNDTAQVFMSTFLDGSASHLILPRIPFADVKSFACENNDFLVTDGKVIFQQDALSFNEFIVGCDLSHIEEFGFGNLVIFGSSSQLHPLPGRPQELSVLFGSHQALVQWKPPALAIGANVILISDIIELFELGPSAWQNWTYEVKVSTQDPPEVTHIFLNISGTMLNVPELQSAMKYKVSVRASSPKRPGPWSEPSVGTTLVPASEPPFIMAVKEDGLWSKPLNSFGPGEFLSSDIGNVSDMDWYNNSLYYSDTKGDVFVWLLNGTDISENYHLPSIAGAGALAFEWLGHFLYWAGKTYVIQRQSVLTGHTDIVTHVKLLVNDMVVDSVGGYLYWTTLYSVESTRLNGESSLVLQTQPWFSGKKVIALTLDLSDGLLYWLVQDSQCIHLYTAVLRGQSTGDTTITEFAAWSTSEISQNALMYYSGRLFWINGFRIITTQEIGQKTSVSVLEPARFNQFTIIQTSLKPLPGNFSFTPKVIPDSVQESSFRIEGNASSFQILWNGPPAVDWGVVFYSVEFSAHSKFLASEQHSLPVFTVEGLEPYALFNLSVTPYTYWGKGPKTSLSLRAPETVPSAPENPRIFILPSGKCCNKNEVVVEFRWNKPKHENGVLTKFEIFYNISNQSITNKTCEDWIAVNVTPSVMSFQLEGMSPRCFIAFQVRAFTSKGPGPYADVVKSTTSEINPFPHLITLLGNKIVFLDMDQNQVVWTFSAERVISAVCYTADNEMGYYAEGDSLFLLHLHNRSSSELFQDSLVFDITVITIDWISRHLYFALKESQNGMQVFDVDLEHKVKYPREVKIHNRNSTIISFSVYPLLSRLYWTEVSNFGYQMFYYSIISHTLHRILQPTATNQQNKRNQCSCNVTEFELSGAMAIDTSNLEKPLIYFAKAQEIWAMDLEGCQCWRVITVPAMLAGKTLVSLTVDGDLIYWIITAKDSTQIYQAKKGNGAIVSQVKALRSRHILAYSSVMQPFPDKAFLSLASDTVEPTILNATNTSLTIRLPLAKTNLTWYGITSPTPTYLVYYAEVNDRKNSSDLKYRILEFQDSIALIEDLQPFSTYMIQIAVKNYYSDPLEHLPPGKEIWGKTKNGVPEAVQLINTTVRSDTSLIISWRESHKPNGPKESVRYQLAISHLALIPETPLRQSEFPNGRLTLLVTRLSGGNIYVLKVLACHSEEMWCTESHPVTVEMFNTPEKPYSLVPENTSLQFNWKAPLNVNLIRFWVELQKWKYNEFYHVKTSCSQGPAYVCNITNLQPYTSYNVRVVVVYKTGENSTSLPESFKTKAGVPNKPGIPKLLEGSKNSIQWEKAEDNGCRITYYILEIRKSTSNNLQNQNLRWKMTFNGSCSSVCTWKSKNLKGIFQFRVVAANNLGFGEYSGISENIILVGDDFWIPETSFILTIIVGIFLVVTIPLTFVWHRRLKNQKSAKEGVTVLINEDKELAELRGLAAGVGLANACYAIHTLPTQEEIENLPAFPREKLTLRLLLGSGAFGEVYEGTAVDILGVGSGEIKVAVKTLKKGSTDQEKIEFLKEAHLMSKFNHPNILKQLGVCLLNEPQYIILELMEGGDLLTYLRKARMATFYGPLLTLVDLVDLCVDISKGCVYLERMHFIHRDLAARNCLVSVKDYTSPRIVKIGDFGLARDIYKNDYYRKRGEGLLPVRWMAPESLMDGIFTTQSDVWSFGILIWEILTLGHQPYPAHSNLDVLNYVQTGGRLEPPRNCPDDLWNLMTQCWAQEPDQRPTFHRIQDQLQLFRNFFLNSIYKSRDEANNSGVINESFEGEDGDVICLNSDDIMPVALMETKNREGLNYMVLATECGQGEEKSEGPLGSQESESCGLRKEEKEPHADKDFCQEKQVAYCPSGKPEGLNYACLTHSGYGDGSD

SIK3 (human) = SIK3 (human) (UniProt Q9Y2K2)
SIK3 (human), sequence (Q9Y2K2 whole entry, looked up): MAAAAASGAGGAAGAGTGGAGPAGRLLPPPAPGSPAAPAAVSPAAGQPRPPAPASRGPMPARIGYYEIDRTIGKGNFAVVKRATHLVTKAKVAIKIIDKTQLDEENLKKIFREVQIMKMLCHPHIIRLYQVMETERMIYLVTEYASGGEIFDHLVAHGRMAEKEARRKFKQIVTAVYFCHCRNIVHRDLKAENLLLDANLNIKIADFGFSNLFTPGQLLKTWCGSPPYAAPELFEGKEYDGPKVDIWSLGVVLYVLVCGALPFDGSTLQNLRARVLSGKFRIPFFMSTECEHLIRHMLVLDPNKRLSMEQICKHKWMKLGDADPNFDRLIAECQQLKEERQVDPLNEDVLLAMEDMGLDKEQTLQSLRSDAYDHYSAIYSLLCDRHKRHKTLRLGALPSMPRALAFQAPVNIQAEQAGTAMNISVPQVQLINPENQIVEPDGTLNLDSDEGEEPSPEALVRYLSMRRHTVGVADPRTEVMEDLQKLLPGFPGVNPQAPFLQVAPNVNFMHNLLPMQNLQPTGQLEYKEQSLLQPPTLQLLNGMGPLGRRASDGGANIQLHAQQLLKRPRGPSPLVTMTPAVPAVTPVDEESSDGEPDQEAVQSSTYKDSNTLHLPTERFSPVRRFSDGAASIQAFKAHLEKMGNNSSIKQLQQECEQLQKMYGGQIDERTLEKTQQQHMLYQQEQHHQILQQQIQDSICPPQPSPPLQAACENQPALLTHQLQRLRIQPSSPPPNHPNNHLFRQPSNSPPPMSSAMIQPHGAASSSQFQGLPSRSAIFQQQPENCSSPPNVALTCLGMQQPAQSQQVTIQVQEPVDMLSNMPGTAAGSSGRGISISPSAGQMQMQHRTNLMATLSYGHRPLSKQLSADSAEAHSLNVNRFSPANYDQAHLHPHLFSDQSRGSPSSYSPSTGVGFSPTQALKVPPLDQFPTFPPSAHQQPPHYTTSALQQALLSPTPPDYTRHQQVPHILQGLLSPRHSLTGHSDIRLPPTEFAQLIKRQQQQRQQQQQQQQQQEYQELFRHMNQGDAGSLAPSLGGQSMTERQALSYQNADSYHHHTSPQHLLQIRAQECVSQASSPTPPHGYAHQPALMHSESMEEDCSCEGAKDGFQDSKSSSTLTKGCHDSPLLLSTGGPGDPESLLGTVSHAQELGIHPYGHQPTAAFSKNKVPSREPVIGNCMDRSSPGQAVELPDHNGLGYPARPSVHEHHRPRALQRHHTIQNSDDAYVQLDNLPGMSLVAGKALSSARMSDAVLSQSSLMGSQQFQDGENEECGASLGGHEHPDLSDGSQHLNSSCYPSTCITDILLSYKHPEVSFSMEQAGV

NEK6 (human) = NEK6 (human) (UniProt Q9HC98)
PRKX (human) = PRKX (human) (UniProt P51817)
FYN (human) = FYN (human) (UniProt P06241)
FYN (human), sequence (P06241 whole entry, looked up): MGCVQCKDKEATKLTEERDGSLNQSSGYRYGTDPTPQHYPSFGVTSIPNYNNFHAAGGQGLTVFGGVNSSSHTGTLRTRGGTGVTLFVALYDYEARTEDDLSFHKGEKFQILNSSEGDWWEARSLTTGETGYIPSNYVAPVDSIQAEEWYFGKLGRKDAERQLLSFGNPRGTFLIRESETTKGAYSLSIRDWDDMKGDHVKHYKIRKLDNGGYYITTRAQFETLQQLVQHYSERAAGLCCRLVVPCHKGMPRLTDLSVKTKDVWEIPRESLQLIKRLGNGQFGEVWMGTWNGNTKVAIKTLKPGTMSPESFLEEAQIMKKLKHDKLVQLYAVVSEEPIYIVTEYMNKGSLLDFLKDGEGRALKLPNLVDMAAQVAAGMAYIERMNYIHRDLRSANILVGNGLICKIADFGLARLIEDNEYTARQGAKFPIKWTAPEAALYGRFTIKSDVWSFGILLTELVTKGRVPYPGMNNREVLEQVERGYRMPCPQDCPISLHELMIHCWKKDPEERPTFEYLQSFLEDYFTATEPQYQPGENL

STK32C (human) = STK32C (human) (UniProt Q86UX6)
PRKG2 (human) = PRKG2 (human) (UniProt Q13237)
PLK1 (human) = PLK1 (human) (UniProt P53350)
AKT3 (human) = AKT3 (human) (UniProt Q9Y243)
MYLK3 (human) = MYLK3 (human) (UniProt Q32MK0)
STK11 (human) = STK11 (human) (UniProt Q15831)
STK16 (human) = STK16 (human) (UniProt O75716)
EPHA2 (human) = EPHA2 (human) (UniProt P29317)
MAP3K7 (human) = MAP3K7 (human) (UniProt O43318)
NIM1 (human) = NIM1 (human) (UniProt Q8IY84)
PDGFRB (human) = PDGFRB (human) (UniProt P09619)
SGK110 (human) = SGK110 (human) (UniProt P0C264)

SMILES: CN(C)C/C=C/C(=O)Nc1ccc(C(=O)Nc2cccc(Nc3nccc(-c4cccnc4)n3)c2)cc1
- kinase still bound, per cent of control (TNK2 (human)): 100%
- kinase still bound, per cent of control (AAK1 (human)): 5.2%
- kinase still bound, per cent of control (PIP5K1A (human)): 34%
- kinase still bound, per cent of control (MAPK7 (human)): 100%
- kinase still bound, per cent of control (NEK5 (human)): 2.2%
- kinase still bound, per cent of control (STK17A (human)): 6.4%
- kinase still bound, per cent of control (FRK (human)): 100%
- kinase still bound, per cent of control (MAP3K4 (human)): 71%
- kinase still bound, per cent of control (PIK3CA (human)): 100%
- kinase still bound, per cent of control (CAMK2B (human)): 60%
- kinase still bound, per cent of control (BTK (human)): 71%
- kinase still bound, per cent of control (FES (human)): 99%
- kinase still bound, per cent of control (ABL2 (human)): 100%
- kinase still bound, per cent of control (MAPK4 (human)): 19%
- kinase still bound, per cent of control (RIOK3 (human)): 13%
- kinase still bound, per cent of control (EPHA7 (human)): 100%
- kinase still bound, per cent of control (PKMYT1 (human)): 100%
- kinase still bound, per cent of control (PTK2 (human)): 100%
- kinase still bound, per cent of control (TYRO3 (human)): 100%
- kinase still bound, per cent of control (NEK4 (human)): 100%
- kinase still bound, per cent of control (TNNI3K (human)): 100%
- kinase still bound, per cent of control [1]: 40%
- kinase still bound, per cent of control (MYO3B (human)): 100%
- kinase still bound, per cent of control (RPS6KB1 (human)): 100%
- kinase still bound, per cent of control (ROS1 (human)): 76%
- kinase still bound, per cent of control (SIK3 (human)): 64%
- kinase still bound, per cent of control (NEK6 (human)): 2.8%
- kinase still bound, per cent of control (PRKX (human)): 100%
- kinase still bound, per cent of control (FYN (human)): 100%
- kinase still bound, per cent of control (STK32C (human)): 100%
- kinase still bound, per cent of control (PRKG2 (human)): 76%
- kinase still bound, per cent of control (PLK1 (human)): 100%
- kinase still bound, per cent of control (AKT3 (human)): 100%
- kinase still bound, per cent of control (MYLK3 (human)): 87%
- kinase still bound, per cent of control (STK11 (human)): 83%
- kinase still bound, per cent of control (STK16 (human)): 1.2%
- kinase still bound, per cent of control (EPHA2 (human)): 97%
- kinase still bound, per cent of control (MAP3K7 (human)): 9.2%
- kinase still bound, per cent of control (NIM1 (human)): 94%
- kinase still bound, per cent of control (PDGFRB (human)): 3.6%
- kinase still bound, per cent of control (SGK110 (human)): 100%

SMILES: NC(=O)Nc1cc(-c2cccc(F)c2)sc1C(=O)N[C@@H]1CCCNC1
- kinase still bound, per cent of control (TNK2 (human)): 0.85%
- kinase still bound, per cent of control (AAK1 (human)): 1.3%
- kinase still bound, per cent of control (PIP5K1A (human)): 0%
- kinase still bound, per cent of control (MAPK7 (human)): 80%
- kinase still bound, per cent of control (NEK5 (human)): 90%
- kinase still bound, per cent of control (STK17A (human)): 0.55%
- kinase still bound, per cent of control (FRK (human)): 0.65%
- kinase still bound, per cent of control (MAP3K4 (human)): 42%
- kinase still bound, per cent of control (PIK3CA (human)): 100%
- kinase still bound, per cent of control (CAMK2B (human)): 19%
- kinase still bound, per cent of control (BTK (human)): 0.2%
- kinase still bound, per cent of control (FES (human)): 0.65%
- kinase still bound, per cent of control (ABL2 (human)): 0.2%
- kinase still bound, per cent of control (MAPK4 (human)): 61%
- kinase still bound, per cent of control (RIOK3 (human)): 0.4%
- kinase still bound, per cent of control (EPHA7 (human)): 0.1%
- kinase still bound, per cent of control (PKMYT1 (human)): 33%
- kinase still bound, per cent of control (PTK2 (human)): 0.1%
- kinase still bound, per cent of control (TYRO3 (human)): 3.2%
- kinase still bound, per cent of control (NEK4 (human)): 22%
- kinase still bound, per cent of control (TNNI3K (human)): 7.3%
- kinase still bound, per cent of control [1]: 0%
- kinase still bound, per cent of control (MYO3B (human)): 8.2%
- kinase still bound, per cent of control (RPS6KB1 (human)): 6.4%
- kinase still bound, per cent of control (ROS1 (human)): 2%
- kinase still bound, per cent of control (SIK3 (human)): 6.2%
- kinase still bound, per cent of control (NEK6 (human)): 89%
- kinase still bound, per cent of control (PRKX (human)): 0.7%
- kinase still bound, per cent of control (FYN (human)): 0.05%
- kinase still bound, per cent of control (STK32C (human)): 53%
- kinase still bound, per cent of control (PRKG2 (human)): 0.5%
- kinase still bound, per cent of control (PLK1 (human)): 33%
- kinase still bound, per cent of control (AKT3 (human)): 100%
- kinase still bound, per cent of control (MYLK3 (human)): 10%
- kinase still bound, per cent of control (STK11 (human)): 4.8%
- kinase still bound, per cent of control (STK16 (human)): 21%
- kinase still bound, per cent of control (EPHA2 (human)): 7.4%
- kinase still bound, per cent of control (MAP3K7 (human)): 0%
- kinase still bound, per cent of control (NIM1 (human)): 13%
- kinase still bound, per cent of control (PDGFRB (human)): 0%
- kinase still bound, per cent of control (SGK110 (human)): 0%
